# Measurements: article PMC10120462, “Styrylquinazoline derivatives as ABL inhibitors selective for different DFG orientations” (Journal of Enzyme Inhibition and Medicinal Chemistry, 2023)
# Assays:
# Fyn A = molecular target: T1, Fyn A (Homo sapiens, UniProt P06241); assay: Tyrosine kinase assay (Kinase Selectivity System TK-2, ADP-Glo); type: biochemical; conditions: 1 h incubation, mean ± SD of four experiments
# T1 construct: purchased Promega
# Description: All newly synthesised derivatives were screened for their inhibitory potential towards eight non-receptor tyrosine kinases, such as ABL, BTK, BRK and Src family kinases, such as CSK, Lyn, Lck, Fyn and Src. […] To facilitate the analysis of the structure and enzymatic activity, all tested compounds were divided into four subgroups based on the main structural scaffolds (the general structure of each group is shown in the second column of Table 1). Series A, B, and C were subdivided according to the S^4-aryl substituent, while D represents the different styryl groups at the C^2-quinazoline position.
# Herein, we used a kinase assay that contained fully expressed kinases with their regulatory domains, which are responsible for autoinhibition. The proteins are present in their unphosphorylated form and the procedure required supplementation with ATP. Importantly, autophosphorylation of ABL is dependent on […] concentration of the protein. Thus, our experimental conditions reflect the cellular process to be simulated. The luminescence signal detected after one hour of incubation with a peptide substrate was a measure of inhibition. Under these conditions, the question of whether the inhibitors tested bind to the ortho or allosteric site of the protein could be answered. […] To test this hypothesis, further molecular docking experiments were performed to more precisely determine the binding of the tested compounds to the ABL kinase.
# To determine the inhibition of non-receptor tyrosine kinases, assays were performed using the kinase selectivity system TK-2 and the ADP-Glo Kinase Assay (both from Promega). The protocol was previously developed by our group and described in reports[12]^,[36]. Experiments were performed at least four times. Data are expressed as percentage of tyrosine kinase inhibitory activity after treatment with the derivatives tested.
# Src = molecular target: T2, Src (Homo sapiens, UniProt P12931); assay: as above; type: biochemical; conditions: 1 h incubation, mean ± SD of four experiments
# T2 construct: purchased Promega
# T2 sequence (P12931 whole entry): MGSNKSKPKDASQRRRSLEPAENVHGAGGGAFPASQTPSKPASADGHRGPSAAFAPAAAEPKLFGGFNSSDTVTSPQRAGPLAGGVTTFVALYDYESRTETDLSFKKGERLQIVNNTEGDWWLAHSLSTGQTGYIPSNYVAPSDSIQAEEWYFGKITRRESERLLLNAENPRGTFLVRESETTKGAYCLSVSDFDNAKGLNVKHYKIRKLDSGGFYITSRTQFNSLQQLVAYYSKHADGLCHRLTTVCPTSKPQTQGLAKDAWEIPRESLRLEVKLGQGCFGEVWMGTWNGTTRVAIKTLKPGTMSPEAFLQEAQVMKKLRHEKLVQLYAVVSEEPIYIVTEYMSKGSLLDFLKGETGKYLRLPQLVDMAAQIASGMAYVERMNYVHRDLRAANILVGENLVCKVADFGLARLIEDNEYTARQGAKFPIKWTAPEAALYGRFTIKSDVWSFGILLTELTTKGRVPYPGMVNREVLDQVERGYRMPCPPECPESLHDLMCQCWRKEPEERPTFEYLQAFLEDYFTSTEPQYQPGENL
# Lyn B = molecular target: T3, Lyn B (Homo sapiens, UniProt P07948); assay: as above; type: biochemical; conditions: 1 h incubation, mean ± SD of four experiments
# T3 construct: purchased Promega
# T3 sequence (P07948 1-491 isoform P07948-2): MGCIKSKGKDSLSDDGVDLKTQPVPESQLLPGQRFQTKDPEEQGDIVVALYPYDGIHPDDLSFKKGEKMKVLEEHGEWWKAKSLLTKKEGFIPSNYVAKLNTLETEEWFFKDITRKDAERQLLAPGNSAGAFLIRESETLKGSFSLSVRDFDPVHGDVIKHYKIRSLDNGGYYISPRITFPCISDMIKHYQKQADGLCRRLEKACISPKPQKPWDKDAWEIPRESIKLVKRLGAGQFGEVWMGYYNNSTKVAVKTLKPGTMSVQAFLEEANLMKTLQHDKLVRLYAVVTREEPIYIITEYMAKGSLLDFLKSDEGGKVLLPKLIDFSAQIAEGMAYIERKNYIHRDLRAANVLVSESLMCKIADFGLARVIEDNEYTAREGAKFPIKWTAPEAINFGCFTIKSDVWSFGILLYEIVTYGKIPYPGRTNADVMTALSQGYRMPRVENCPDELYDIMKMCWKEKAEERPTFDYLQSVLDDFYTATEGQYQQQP
# CSK = molecular target: T4, CSK (Homo sapiens, UniProt P41240); assay: as above; type: biochemical; conditions: 1 h incubation, mean ± SD of four experiments
# T4 construct: purchased Promega
# BRK = molecular target: T5, BRK (Homo sapiens, UniProt Q13882); assay: as above; type: biochemical; conditions: 1 h incubation, mean ± SD of four experiments
# T5 construct: purchased Promega
# T5 sequence (Q13882 whole entry): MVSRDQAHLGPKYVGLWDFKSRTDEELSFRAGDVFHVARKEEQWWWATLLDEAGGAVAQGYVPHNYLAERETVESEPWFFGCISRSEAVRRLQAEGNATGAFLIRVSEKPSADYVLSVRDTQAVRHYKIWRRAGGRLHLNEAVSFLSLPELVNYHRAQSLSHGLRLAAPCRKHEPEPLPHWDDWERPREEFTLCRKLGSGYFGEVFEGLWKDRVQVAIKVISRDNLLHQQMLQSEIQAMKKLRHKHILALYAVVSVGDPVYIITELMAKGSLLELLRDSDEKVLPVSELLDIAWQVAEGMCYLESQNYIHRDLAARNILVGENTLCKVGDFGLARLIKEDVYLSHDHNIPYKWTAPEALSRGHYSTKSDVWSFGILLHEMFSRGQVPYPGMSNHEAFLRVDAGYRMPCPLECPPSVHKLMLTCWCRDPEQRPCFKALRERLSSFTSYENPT
# K562 cells = assay: Cell cycle assay (Muse Cell-Cycle Kit, flow cytometry); type: cell-based, human; conditions: 16 h, concentration not given; control 28.68%
# Description: The interesting inhibitory potential of ABL kinase and the high antiproliferative activity of several styrylquinazoline derivatives prompted us to further investigate their mechanism of action.
# K562 cells were seeded in 3 cm Petri dishes (Nunc) at a density of 150,000 cells per well and incubated under standard conditions at 37 °C for 24 h. […] After 16 h of treatment, assays were performed using a Muse Cell-Cycle Kit (Millipore) according to the supplier’s instructions. Briefly, leukaemia cells were collected, washed in cold PBS, and centrifuged. Cells were then fixed in ice-cold 70% ethanol and stored at −20 °C overnight. The next day, leukaemia cells were washed with cold PBS, centrifuged and resuspended in Muse™ Cell Cycle Reagent. Samples were incubated for 30 min at room temperature in the dark. After staining, the levels of cellular subpopulations in each cell cycle phase were determined using a Muse Cell Analyser (Millipore). Experiments were performed at least four times.
# NHDF = assay: Cytotoxicity studies (MTS), normal fibroblasts; type: cell-based; conditions: 72 h, normal human fibroblasts, read-out: Antiproliferative activity IC50 NHDF
# Description: (§1) In contrast, the other cell lines studied represent common cancers found in the human population. Nevertheless, these cell lines are characterised by a different landscape of kinase expression, as reported in[36]. In chronic leukaemia cells, an aberration of the Philadelphia chromosome is common in which a fragment of chromosome 9 is displaced to chromosome 22, leading to the formation of the oncogenic protein BCR-ABL. The altered structure of the protein leads to abnormal activity that promotes excessive growth and differentiation of cells even in the absence of growth factors, as well as inhibition of apoptosis and formation of metastases. Moreover, the status of the TP53 gene in leukaemia is not insignificant. Mutations of the TP53 gene occur in more than 50% of all cancers, leading to increased metastasis and an overall poor prognosis[38]^,[39]. The p53 protein encoded by this gene plays a pivotal role in controlling cell division or cell fate when damage is detected. […] Therefore, interaction between the signalling network of the BCR-ABL pathway and p53 often results in an impairment of p53 function and survival[43]^,[44]. […] Selectivity studies were performed on normal human fibroblast – NHDF cell line.
# (§2) M. Rusin from the Maria Sklodowska-Curie Memorial Cancer Centre and Institute of Oncology in Gliwice, Poland. […] G. Kramer-Marek from the Institute of Cancer Research in London, United Kingdom. The human suspension chronic myeloids leukaemia cell line K562 and the pancreatic ductal adenocarcinoma cell line PANC-1 were purchased from Merck. The normal human dermal fibroblasts cell line NHDF were obtained from PromoCell. All adherent cancer cell lines were cultured in Dulbecco’s Modified Eagle’s medium (DMEM) supplemented with 10% heat-inactivated foetal bovine serum – FBS (all from Merck). […] Each complete medium contained a mixture of two antibiotics - penicillin and streptomycin (1% v/v; Gibco). Cell lines were cultured at 37 °C with 5% CO2 humidified atmosphere.
# (§3) The assay was carried out after 72 h of incubation with different concentrations of the tested compounds. Then DMEM without phenol red was added to each well with CellTiter 96®AQueous One Solution-MTS (Promega) solution and incubated for 1 h or 3 h (PANC-1) at 37 °C. The optical densities of the samples were measured at 490 nm using a multi-plate reader (Synergy 4, BioTek). […] Each compound was tested in triplicate in a single experiment and each experiment was performed three or four times.
# ABL = molecular target: T6, ABL (Homo sapiens, UniProt P00519); assay: Tyrosine kinase assay (Kinase Selectivity System TK-2, ADP-Glo); type: biochemical; conditions: 1 h incubation, mean ± SD of four experiments; for Inhibition of tyrosine kinase activity [%] ABL: 0.5 μM
# T6 construct: purchased Promega
# T6 sequence (P00519 whole entry): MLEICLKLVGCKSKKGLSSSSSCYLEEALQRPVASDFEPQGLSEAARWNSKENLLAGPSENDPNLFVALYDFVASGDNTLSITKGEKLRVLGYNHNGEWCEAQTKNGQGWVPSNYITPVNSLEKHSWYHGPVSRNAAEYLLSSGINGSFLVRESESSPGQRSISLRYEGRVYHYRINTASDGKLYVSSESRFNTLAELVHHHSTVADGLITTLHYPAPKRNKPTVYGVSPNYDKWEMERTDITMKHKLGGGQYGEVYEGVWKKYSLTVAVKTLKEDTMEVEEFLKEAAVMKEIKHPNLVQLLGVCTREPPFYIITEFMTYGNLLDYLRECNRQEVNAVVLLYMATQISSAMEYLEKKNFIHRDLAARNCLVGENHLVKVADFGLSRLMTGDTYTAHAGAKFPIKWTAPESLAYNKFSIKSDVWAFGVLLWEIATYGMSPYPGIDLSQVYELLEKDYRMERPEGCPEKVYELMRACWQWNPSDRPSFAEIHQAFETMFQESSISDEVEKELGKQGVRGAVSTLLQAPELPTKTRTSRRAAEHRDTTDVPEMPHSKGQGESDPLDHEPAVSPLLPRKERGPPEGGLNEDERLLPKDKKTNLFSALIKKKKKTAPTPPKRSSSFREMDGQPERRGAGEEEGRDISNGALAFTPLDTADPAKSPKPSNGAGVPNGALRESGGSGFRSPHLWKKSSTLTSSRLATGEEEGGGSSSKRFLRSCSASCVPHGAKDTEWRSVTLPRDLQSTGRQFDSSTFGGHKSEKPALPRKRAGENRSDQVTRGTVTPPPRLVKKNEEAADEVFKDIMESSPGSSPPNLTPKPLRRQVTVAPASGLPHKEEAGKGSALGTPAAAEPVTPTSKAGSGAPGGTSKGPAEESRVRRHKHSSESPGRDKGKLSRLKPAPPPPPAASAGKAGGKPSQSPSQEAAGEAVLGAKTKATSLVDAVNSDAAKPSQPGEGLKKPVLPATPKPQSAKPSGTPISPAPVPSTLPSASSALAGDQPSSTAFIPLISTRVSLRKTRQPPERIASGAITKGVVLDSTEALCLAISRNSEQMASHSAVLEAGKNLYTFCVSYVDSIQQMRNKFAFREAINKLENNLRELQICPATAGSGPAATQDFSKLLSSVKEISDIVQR
# BTK = molecular target: T7, BTK (Homo sapiens, UniProt Q06187); assay: as above; type: biochemical; conditions: 1 h incubation, mean ± SD of four experiments
# T7 construct: purchased Promega
# T7 sequence (Q06187 whole entry): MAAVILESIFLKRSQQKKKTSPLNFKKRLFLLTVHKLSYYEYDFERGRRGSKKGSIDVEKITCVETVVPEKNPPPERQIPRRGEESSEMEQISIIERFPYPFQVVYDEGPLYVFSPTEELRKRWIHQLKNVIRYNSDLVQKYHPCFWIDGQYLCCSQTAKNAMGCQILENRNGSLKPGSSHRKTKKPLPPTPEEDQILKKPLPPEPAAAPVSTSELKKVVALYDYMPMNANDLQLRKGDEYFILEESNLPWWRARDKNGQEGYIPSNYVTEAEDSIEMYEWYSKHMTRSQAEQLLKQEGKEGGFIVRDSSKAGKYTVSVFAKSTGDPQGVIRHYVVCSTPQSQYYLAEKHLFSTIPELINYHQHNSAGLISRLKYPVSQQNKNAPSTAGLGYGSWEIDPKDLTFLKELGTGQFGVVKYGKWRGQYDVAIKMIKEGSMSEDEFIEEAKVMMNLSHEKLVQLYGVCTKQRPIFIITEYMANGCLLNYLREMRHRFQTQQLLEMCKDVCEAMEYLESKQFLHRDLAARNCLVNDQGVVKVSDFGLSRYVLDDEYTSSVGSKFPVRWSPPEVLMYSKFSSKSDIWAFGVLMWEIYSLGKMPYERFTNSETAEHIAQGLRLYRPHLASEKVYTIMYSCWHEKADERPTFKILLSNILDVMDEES
# PANC-1 = assay: Cytotoxicity studies (MTS), antiproliferative activity; type: cell-based, human; conditions: Homo sapiens, PANC-1; 72 h, MTS
# Description: as §1, §2, §3
# HCT 116 p53−/− = assay: as above; type: cell-based, human; conditions: Homo sapiens, HCT-116; 72 h, MTS
# Description: as §1, §2, §3
# MCF-7 = assay: as above; type: cell-based, human; conditions: for IC50: Homo sapiens, MCF7, 72 h, MTS
# Description: as §1, §2, §3
# A549 = assay: as above; type: cell-based, human; conditions: for IC50: Homo sapiens, A549, 72 h, MTS
# Description: as §1, §2, §3
# HCT 116 p53+/+ = assay: as above; type: cell-based, human; conditions: for IC50: Homo sapiens, HCT-116, 72 h, MTS
# Description: as §1, §2, §3
# U-251 = assay: as above; type: cell-based, human; conditions: for IC50: Homo sapiens, U-251, 72 h, MTS
# Description: as §1, §2, §3
# K562 = assay: as above; type: cell-based, human; conditions: for IC50: Homo sapiens, K562, 72 h, MTS
# Description: as §1, §2, §3
# Lck = molecular target: T8, Lck (Homo sapiens, UniProt P06239); assay: Tyrosine kinase assay (Kinase Selectivity System TK-2, ADP-Glo); type: biochemical; conditions: 1 h incubation, mean ± SD of four experiments
# T8 construct: purchased Promega
# T8 sequence (P06239 whole entry): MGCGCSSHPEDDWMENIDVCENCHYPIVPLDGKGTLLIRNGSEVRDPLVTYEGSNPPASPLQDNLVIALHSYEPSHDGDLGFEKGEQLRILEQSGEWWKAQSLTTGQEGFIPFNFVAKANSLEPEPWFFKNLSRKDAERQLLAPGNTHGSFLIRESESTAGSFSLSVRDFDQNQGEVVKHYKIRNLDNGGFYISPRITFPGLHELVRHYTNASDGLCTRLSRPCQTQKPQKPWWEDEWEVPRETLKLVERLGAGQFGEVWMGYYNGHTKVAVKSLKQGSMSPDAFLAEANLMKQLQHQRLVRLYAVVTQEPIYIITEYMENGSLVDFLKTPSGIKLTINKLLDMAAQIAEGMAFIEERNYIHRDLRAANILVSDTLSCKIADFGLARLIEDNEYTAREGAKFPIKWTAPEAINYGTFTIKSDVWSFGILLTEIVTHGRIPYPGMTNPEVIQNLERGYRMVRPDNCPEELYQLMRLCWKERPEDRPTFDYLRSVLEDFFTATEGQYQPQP
# T1 sequence (P06241 whole entry): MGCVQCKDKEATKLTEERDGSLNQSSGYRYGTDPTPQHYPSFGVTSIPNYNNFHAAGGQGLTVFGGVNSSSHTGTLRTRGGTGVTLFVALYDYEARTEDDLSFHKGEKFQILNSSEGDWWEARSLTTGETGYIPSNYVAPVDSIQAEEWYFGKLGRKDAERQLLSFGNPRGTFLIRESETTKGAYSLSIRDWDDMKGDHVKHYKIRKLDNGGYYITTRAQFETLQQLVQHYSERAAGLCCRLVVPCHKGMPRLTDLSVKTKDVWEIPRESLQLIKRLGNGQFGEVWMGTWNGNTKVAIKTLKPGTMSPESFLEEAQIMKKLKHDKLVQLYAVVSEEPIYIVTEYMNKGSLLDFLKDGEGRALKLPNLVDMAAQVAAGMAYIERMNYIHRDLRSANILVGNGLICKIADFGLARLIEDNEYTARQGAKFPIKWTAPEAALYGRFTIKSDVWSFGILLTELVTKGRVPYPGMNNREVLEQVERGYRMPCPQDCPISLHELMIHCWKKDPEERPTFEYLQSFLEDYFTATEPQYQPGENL
Structure (SMILES),inhibition at 0.5 µM (Fyn A),inhibition at 0.5 µM (Src),inhibition at 0.5 µM (Lyn B),inhibition at 0.5 µM (CSK),inhibition at 0.5 µM (BRK),inhibition at 0.5 µM (ABL),inhibition at 0.5 µM (BTK),inhibition at 0.5 µM (Lck),Inhibition of tyrosine kinase activity [%] ABL (ABL),IC50 (NHDF),IC50 (PANC-1),IC50 (HCT 116 p53−/−),IC50 (A549),IC50 (HCT 116 p53+/+),IC50 (U-251),IC50 (K562),other results
"CNC(=O)c1ccccc1Sc1ccc2c(/C=C/c3ccccn3)n[nH]c2c1 [Axitinib, axitinib, reference compound]",43.8 ± 2.96%,10.8 ± 1.95%,39 ± 9.95%,11.4 ± 3.89%,0%,,,,,,,,,,,,Fraction of cells in the G2/M phase (K562 cells): 47.28%
"COc1ccc(/C=C/c2nc(Sc3ccccc3Cl)c3ccccc3n2)c(OC)c1 [IS16, 2-[(E)-2–(2,4-dimethoxyphenyl)ethenyl]-4–(2-chlorophenylthio)quinazoline]",50.1 ± 3.49%,0%,0%,15.5 ± 2.88%,0%,35.6 ± 1.5%,13.1 ± 2.69%,48.1 ± 6.55%,,14.6 ± 1.27 µM,> 2.5 µM,> 10 µM,13.4 ± 0.6 µM,> 15 µM,20.9 ± 1.63 µM,7.83 ± 0.753 µM,IC50 (MCF-7): > 25 µM; Selectivity index MCF-7 (MCF-7; versus NHDF): 1.00; Selectivity index A549 (A549; versus NHDF): 1.86; Selectivity index HCT 116 p53+/+ (HCT 116 p53+/+; versus NHDF): 1.67; Selectivity index U-251 (U-251; versus NHDF): 1.20; Selectivity index K562 (K562; versus NHDF): 3.20
"COc1ccc(/C=C/c2nc(Sc3cc4c(cc3Br)OCO4)c3ccccc3n2)c(OC)c1 [IS17, 5-{2-[(E)-2–(2,4-dimethoxyphenyl)ethenyl]quinazolin-4-ylthio}-6-bromo-2H-1,3-benzodioxole]",19.8 ± 3.51%,21 ± 1.82%,0%,7.77 ± 3.16%,0%,11.9 ± 2.86%,9.58 ± 0.62%,0%,inactive,21.3 ± 0.8 µM,> 15 µM,> 15 µM,> 15 µM,> 15 µM,20.2 ± 0.9 µM,> 10 µM,
"COc1ccccc1/C=C/c1nc(Sc2ccccc2Br)c2ccccc2n1 [IS4, 2-[(E)-2–(2-methoxyphenyl)ethenyl]-4–(2-bromophenylthio)quinazoline]",34.1 ± 2.53%,18.5 ± 1.07%,3.39 ± 0.47%,17.4 ± 6.31%,0%,29.8 ± 0.95%,45.9 ± 7.54%,0%,,> 25 µM,> 25 µM,> 10 µM,> 15 µM,> 10 µM,> 15 µM,> 15 µM,Inhibition of tyrosine kinase activity [%] BTK (BTK; 0.5 μM): moderate activity
"COc1ccccc1/C=C/c1nc(Sc2ccc(SC)cc2)c2ccccc2n1 [IS9, 2-[(E)-2–(2-methoxyphenyl)ethenyl]-4-[4-(methylthio)phenylthio]quinazolin]",52 ± 3.43%,54%,57%,39.2 ± 6.47%,19.3 ± 4.65%,35.9 ± 7.23%,28.7 ± 2.94%,60.7 ± 5.1%,,> 25 µM,> 25 µM,> 20 µM,> 15 µM,> 20 µM,> 10 µM,> 25 µM,Inhibition of tyrosine kinase activity [%] Src (Src; 0.5 μM): 54.23 ± 3.07%; Inhibition of tyrosine kinase activity [%] Lyn B (Lyn B; 0.5 μM): 57.44 ± 1.76%

# Second part, led by results:
inhibition at 0.5 µM (Fyn A),inhibition at 0.5 µM (Src),inhibition at 0.5 µM (Lyn B),inhibition at 0.5 µM (CSK),inhibition at 0.5 µM (BRK),inhibition at 0.5 µM (ABL),inhibition at 0.5 µM (BTK),inhibition at 0.5 µM (Lck),Inhibition of tyrosine kinase activity [%] ABL (ABL),Structure (SMILES),IC50 (NHDF),IC50 (PANC-1),IC50 (HCT 116 p53−/−),IC50 (A549),IC50 (HCT 116 p53+/+),IC50 (U-251),IC50 (K562),other results
19.1 ± 3.57%,40.9 ± 1.77%,0.86 ± 0.23%,50.7 ± 5.6%,0%,18.4 ± 2.37%,2.87 ± 0.67%,0%,inactive,"COc1ccccc1/C=C/c1nc(Sc2cc3c(cc2Br)OCO3)c2ccccc2n1 [IS11, 5-{2-[(E)-2–(2-methoxyphenyl)ethenyl]quinazolin-4-ylthio}-6-bromo-2H-1,3-benzodioxole]",21.7 ± 1.53 µM,> 10 µM,> 15 µM,> 5 µM,> 15 µM,> 5 µM,> 2.5 µM,
57.5 ± 4.04%,53.4 ± 3.13%,32.3 ± 2.51%,33.1 ± 1.19%,27.2 ± 1.31%,41%,39.3 ± 2.69%,51.5 ± 4.55%,41.81 ± 4.38%,"COc1ccccc1/C=C/c1nc(Sc2cc3c(cc2Br)OCO3)c2ccc(Cl)cc2n1 [IS15, 5-{2-[(E)-2–(2-methoxyphenyl)ethenyl]-7-chloroquinazolin-4-ylthio}-6-bromo-2H-1,3-benzodioxole]",> 25 µM,> 25 µM,> 25 µM,> 25 µM,> 25 µM,> 25 µM,21.2 ± 2.19 µM,IC50 (MCF-7): > 25 µM
